Measured values published in US10858360B2, “Tricyclic gyrase inhibitors” (priority 2011, dated 2020).
In brackets after ≈: the same amount, converted by molar mass. Like-named read-outs stand apart in the source and are kept apart here.

How the values were obtained:
Type in all cases: cell-based
[1] = system: S. aureus ATCC 13709; experiment: MIC, S. aureus ATCC 13709 (Alamar Blue broth microdilution); conditions: for MIC: Staphylococcus aureus
[2] = system: K. pneumoniae ATCC 700603; experiment: MIC, K. pneumoniae ATCC 700603; conditions: for MIC: Klebsiella pneumoniae, ATCC700603, read-out: MIC Kpn
[3] = system: E. coli ATCC 25922; experiment: MIC, E. coli ATCC 25922; conditions: for MIC: Escherichia coli
[4] = system: P. aeruginosa ATCC 15692; experiment: MIC, P. aeruginosa ATCC 15692; conditions: for MIC: Pseudomonas aeruginosa, ATCC15692, Pa = P. aeruginosa
[5] = system: A. baumannii ATCC 19606; experiment: MIC, A. baumannii ATCC 19606; conditions: strain not given; for MIC: Acinetobacter baumannii, ATCC19606, Ab = A. baumannii
[6] = system: S. pneumoniae ATCC 51916; experiment: MIC, S. pneumoniae ATCC 51916; conditions: for MIC: Streptococcus pneumoniae, ATCC51916, Spn = S. pneumoniae
[7] = ATCC13709, S. aureus, Alamar Blue read after overnight incubation at 35° C.
[8] = ATCC25922, E. coli, Alamar Blue read after overnight incubation at 35° C.
[9] = ATCC25922, Ec = E. coli, strain not given
[10] = S. aureus, Alamar Blue read after overnight incubation at 35° C.
[11] = E. coli, Alamar Blue read after overnight incubation at 35° C.

SMILES	MIC [1, 7] [mg/L]	MIC [3, 8] [mg/L]	further results
CNc1cc(F)cc2c1[nH]c1nc(Oc3cnc(C)nc3)nc(N3C[C@@H]4[C@H](N)C[C@]4(C)C3)c12 [4.151]	≤ 0.5	≤ 0.5	MIC ([1]; ATCC13709, Sa = S. aureus): ≤ 0.5 mg/L; MIC [2]: 1 mg/L (≈ 2.23 µM); MIC [3, 9]: ≤ 0.5 mg/L; MIC [4]: 1 mg/L (≈ 2.23 µM); MIC [5]: ≤ 0.5 mg/L; MIC [6]: ≤ 0.5 mg/L
CNc1cc(F)cc2c1[nH]c1nc(Oc3cnc(C(C)O)nc3)nc(N3CC4C[C@@H](N)C4C3)c12 (some centres unmarked) [4.409]	≤ 0.5	≤ 0.5	MIC ([1]; ATCC13709, Sa = S. aureus): ≤ 0.5 mg/L; MIC [2]: 4 mg/L (≈ 8.61 µM); MIC [3, 9]: ≤ 0.5 mg/L; MIC [4]: 1 mg/L (≈ 2.15 µM); MIC [5]: 1 mg/L (≈ 2.15 µM); MIC [6]: ≤ 0.5 mg/L
CNc1cc(F)c(F)c2c1[nH]c1nc(Oc3cnc(C)nc3)nc(N3CC4(CCC4N)C3)c12 (centres unmarked) [5.01]			MIC Sa ([1]; Sa = S. aureus): ≤0.5 mg/L; MIC Kpn ([2]; Kpn = K. pneumoniae): 1 mg/L (≈ 2.21 µM); MIC Ec ([3]; Ec = E. coli, strain not given): ≤0.5 mg/L; MIC Pa [4]: ≤0.5 mg/L; MIC Ab [5]: ≤0.5 mg/L; MIC Spn [6]: ≤0.5 mg/L
CNc1cc(F)c(C)c2c1[nH]c1nc(Oc3cnc(C)nc3)nc(N3CC4C[C@@H]3C[C@H]4N)c12 [6.28]	≤ 0.5	≤ 0.5	MIC ([1]; ATCC13709, Sa = S. aureus): ≤ 0.5 mg/L; MIC [2]: 2 mg/L (≈ 4.46 µM); MIC [3, 9]: ≤ 0.5 mg/L; MIC [4]: 1 mg/L (≈ 2.23 µM); MIC [5]: ≤ 0.5 mg/L; MIC [6]: ≤ 0.5 mg/L
CNc1cc(F)cc2c1[nH]c1nc(Oc3cnc(C)nc3)nc(N3CCC(C)(N)CC3)c12 [4.135]			MIC Sa [1, 10]: ≤0.5 mg/L; MIC Ec [3, 11]: 1 mg/L (≈ 2.29 µM)
CNc1cc(F)cc2c1[nH]c1nc(Oc3cnc(N4CCOCC4)nc3)nc(N3CCC4(CC4N)C3)c12 (centres unmarked) [4.214]	≤ 0.5	2 (≈ 3.96 µM)	
CNc1cc(F)cc2c1[nH]c1nc(Oc3cncc(Cl)c3)nc(N3CC(N)C4(CC4)C3)c12 (centres unmarked) [4.273]			MIC Sa [1, 10]: ≤0.5 mg/L; MIC Ec [3, 11]: 2 mg/L (≈ 4.41 µM)
CCc1ncc(Oc2nc(N3CC4C[C@@H](N)C4C3)c3c(n2)[nH]c2c(NC)cc(F)cc23)cn1 (some centres unmarked) [4.264]	≤ 0.5	≤ 0.5	
CNc1cc(F)cc2c1[nH]c1nc(Oc3ccc4c(c3)C(=O)NC4)nc(N3CC4[C@H](C[C@H]4N)C3)c12 (some centres unmarked) [4.267]	≤ 0.5	4 (≈ 8.45 µM)	
CNc1cc(F)cc2c1[nH]c1nc(Oc3cnc(N)nc3)nc(N3CC4CNC4C3)c12 (centres unmarked) [4.178]	≤ 0.5	8 (≈ 19 µM)	
CNc1cc(F)c(F)c2c1[nH]c1nc(Oc3cncnc3)nc(N3CC(N)C4(CC4)C3)c12 (centres unmarked) [5.09]			MIC Sa [1, 10]: ≤0.5 mg/L; MIC Ec [3, 11]: ≤0.5 mg/L
CNc1cc(F)cc2c1[nH]c1nc(Oc3ccc(C#N)nc3)nc(N3CC4(CCC4N)C3)c12 (centres unmarked) [4.333]			MIC Sa [1, 10]: ≤0.5 mg/L; MIC Ec [3, 11]: ≤0.5 mg/L
CNc1cc(F)cc2c1[nH]c1nc(Oc3cncc([S+](C)[O-])c3)nc(N3CC4C[C@@H](N)C4C3)c12 (some centres unmarked) [4.353]	≤ 0.5	2 (≈ 4.15 µM)	
CNc1cc(F)cc2c1[nH]c1nc(Oc3cncc(SC)c3)nc(N3C[C@H](N)C4(CC4)C3)c12 [4.354]	≤ 0.5	1 (≈ 2.15 µM)	
CNc1cc(F)cc2c1[nH]c1nc(Oc3cnc(C)nc3)nc(N3C4CCC3C(N)C4)c12 (centres unmarked) [4.095]			MIC Sa [1, 10]: 2 mg/L (≈ 4.6 µM); MIC Ec [3, 11]: 8 mg/L (≈ 18.4 µM)
CNc1cc(F)cc2c1[nH]c1nc(Oc3cnc(N)nc3)nc(N3CC4CCC(N)C4C3)c12 (centres unmarked) [4.189]	≤ 0.5	2 (≈ 4.45 µM)	
CNc1cc(F)cc2c1[nH]c1nc(Oc3cnc(C)nc3)nc(N3CC4CC4(CN)C3)c12 (centres unmarked) [4.098]			MIC Sa [1, 10]: ≤0.5 mg/L; MIC Ec [3, 11]: 1 mg/L (≈ 2.3 µM)
CNc1ncnc2c1[nH]c1nc(Oc3cnc(C)nc3)nc(N3CCC(CN)C3)c12 (centres unmarked) [7.12]	> 64	> 64	
CNc1cccc2c1[nH]c1nc(Sc3cnc4cccnc4c3)nc(N3CC4CNC(C4)C3)c12 (centres unmarked) [1.47]	≤ 0.5	2 (≈ 4.27 µM)	

SMILES	MIC [1, 7] [mg/L]	MIC [3, 8] [mg/L]	further results
CCc1ncc(Oc2nc(N3C[C@H](N)C4(CC4)C3)c3c(n2)[nH]c2c(NC)cc(F)cc23)cn1 [4.259]	≤ 0.5	≤ 0.5	
CNc1cccc2c1[nH]c1nc(Sc3cnc4cccnc4c3)nc(N3CC4C(C3)C4(N)CO)c12 (centres unmarked) [1.30]	16 (≈ 33 µM)	> 64	
CNc1cc(F)cc2c1[nH]c1nc(Oc3ccc4sc(N)nc4c3)nc(N3C[C@H]4CC[C@@H](N)[C@H]4C3)c12 [4.335]	≤ 0.5	4 (≈ 7.93 µM)	
CNc1cc(F)cc2c1[nH]c1nc(Oc3cnc(C)nc3)nc(N3CC4(CCCNC4)C3)c12 [4.149]			MIC Sa [1, 10]: ≤0.5 mg/L; MIC Ec [3, 11]: 2 mg/L (≈ 4.46 µM)
CNc1cc(F)cc2c1[nH]c1nc(Oc3cnc(C)nc3)nc(N3CC(N)C3)c12 [4.138]			MIC Sa [1, 10]: ≤0.5 mg/L; MIC Ec [3, 11]: ≤0.5 mg/L
CNc1cc(F)cc2c1[nH]c1nc(Oc3cnc(N)nc3)nc(N3C[C@H]4CC[C@@H](N)[C@H]4C3)c12 [4.186]	≤ 0.5	2 (≈ 4.45 µM)	
CNc1cccc2c1[nH]c1nc(Sc3cnc4cccnc4c3)nc(N3CCC(C(O)c4cccs4)CC3)c12 (centres unmarked) [1.70]	1 (≈ 1.81 µM)	> 32	
CNc1cc(F)cc2c1[nH]c1nc(Oc3ccc4c(c3)C(=O)NC4)nc(N3C[C@H](N)C4(CC4)C3)c12 [4.265]	≤ 0.5	4 (≈ 8.45 µM)	
CNc1cccc2c1[nH]c1nc(Oc3cncc(C#N)c3)nc(N3C[C@@H](N)C4(CC4)C3)c12 [3.44]	8 (≈ 18.8 µM)	16 (≈ 37.5 µM)	
CNc1cccc2c1[nH]c1nc(Sc3cnc4ccc[n+]([O-])c4c3)nc(N3CC4CNC4C3)c12 (centres unmarked) [1.32]	≤ 0.5	4 (≈ 8.5 µM)	
CNc1ccc(C)c2c1[nH]c1nc(Sc3cnc4ccc[n+]([O-])c4c3)nc(N3CC4C(N)C4C3)c12 (centres unmarked) [1.73]	≤ 0.5	8 (≈ 16.5 µM)	
CNc1cc(F)cc2c1[nH]c1nc(Oc3cncnc3)nc(N3CC4CNC4C3)c12 (centres unmarked) [4.008]	≤ 0.5	≤ 0.5	
CNc1cc(F)cc2c1[nH]c1nc(Oc3cncc(Cl)c3)nc(N3CC4CC(N)C4C3)c12 (centres unmarked) [4.271]			MIC Sa [1, 10]: ≤0.5 mg/L; MIC Ec [3, 11]: ≤0.5 mg/L
COc1cccc2c1[nH]c1nc(Sc3cnc4cccnc4c3)nc(N3CC4C(N)C4C3)c12 (centres unmarked) [1.75]	≤ 0.5	> 64	
CNc1cc(F)cc2c1[nH]c1nc(Oc3cncnc3)nc(N3CC[C@]4(C[C@@H]4N)C3)c12 [4.013]	≤ 0.5	≤ 0.5	
CNc1cccc2c1[nH]c1nc(Sc3cncc(S(=O)(=O)N(C)C)c3)nc(N3CC4C(N)C4C3)c12 (centres unmarked) [1.22]	1 (≈ 1.96 µM)	8 (≈ 15.7 µM)	
CNc1cccc2c1[nH]c1nc(Oc3cncnc3)nc(N3CCN(Cc4ccccn4)CC3)c12 [3.54]	8 (≈ 17.1 µM)	> 32	
CNc1cccc2c1[nH]c1nc(Oc3cncnc3)nc(N3CC(N)C(O)C3)c12 (centres unmarked) [3.8]	16 (≈ 40.8 µM)	> 64	
CNc1cccc2c1[nH]c1nc(Sc3cnc4cccnc4c3)nc(N3CCC4(CC4N)C3)c12 (centres unmarked) [1.25]	≤ 0.5		MIC Ec [3, 11]: 4 mg/L (≈ 8.54 µM)

SMILES	MIC [1, 7] [mg/L]	MIC [3, 8] [mg/L]	further results
CNc1cccc2c1[nH]c1nc(Oc3cncnc3)nc(N3CC(F)[C@@H](N)C3)c12 (some centres unmarked) [3.63]	≤ 0.5	8 (≈ 20.3 µM)	
CNc1cc(F)cc2c1[nH]c1nc(Oc3cnc4c(c3)ncn4C3CC3)nc(N3CC(N)C4(CC4)C3)c12 (centres unmarked) [4.362]			MIC Sa [1, 10]: ≤0.5 mg/L; MIC Ec [3, 11]: 1 mg/L (≈ 2 µM)
CNc1cc(F)c(C)c2c1[nH]c1nc(Oc3cnc(C)nc3)nc(N3CC4(CCC4N)C3)c12 (centres unmarked) [6.20]			MIC Sa [1]: 4 mg/L (≈ 8.92 µM); MIC Ec [3]: >16 mg/L
CNc1cc(F)cc2c1[nH]c1nc(Oc3cnc(C(C)(C)O)nc3)nc(N3CC4(CC[C@H]4N)C3)c12 [4.413]	≤ 0.5	≤ 0.5	
CNc1cccc2c1[nH]c1nc(Sc3cnc4cccnc4c3)nc(N3CCC(C)(N)C3)c12 (centres unmarked) [1.59]	1 (≈ 2.19 µM)	4 (≈ 8.76 µM)	
COc1cccc2c1[nH]c1nc(Oc3cccc(C#N)c3)nc(N3CC4C(N)C4C3)c12 (centres unmarked) [2.12]			MIC Sa [1, 10]: 16 mg/L (≈ 38.8 µM); MIC Ec [3, 11]: >64 mg/L
CNc1cc(F)cc2c1[nH]c1nc(Oc3cnc(C)nc3)nc(-c3ccc(Cl)c(N)c3)c12 [4.419]	≤ 0.5	> 16	
NC1CCN(c2nc(Sc3cnc4nccnc4c3)nc3[nH]c4ccccc4c23)C1 (centres unmarked) [1.6]	32 (≈ 77.2 µM)	> 64	
CNc1cc(F)cc2c1[nH]c1nc(Oc3cnc4c(c3)ncn4C)nc(N3CCC(N)C3)c12 (centres unmarked) [4.225]			MIC Sa [1, 10]: ≤0.5 mg/L; MIC Ec [3, 11]: 2 mg/L (≈ 4.47 µM)
CNc1cc(F)cc2c1[nH]c1nc(Oc3cnc(C#N)c(C)c3)nc(N3CC4CC3C[C@@H]4N)c12 (some centres unmarked) [4.435]	≤ 0.5	≤ 0.5	
CNc1cc(Cl)cc2c1[nH]c1nc(Oc3cncnc3)nc(N3CC4(CC4N)C3)c12 (centres unmarked) [6.12]			MIC Sa [1]: ≤0.5 mg/L; MIC Ec [3]: ≤0.5 mg/L
CNc1cc(F)cc2c1[nH]c1nc(Oc3cncnc3)nc(N3C[C@H]4CCN[C@H]4C3)c12 [4.020]	≤ 0.5	≤ 0.5	
CNc1cc(F)cc2c1[nH]c1nc(Oc3cnc(C)nc3)nc(-c3cncc(F)c3)c12 [4.417]	≤ 0.5	1 (≈ 2.38 µM)	
CNc1cc(F)cc2c1[nH]c1nc(Oc3cncc(C#N)c3)nc(N3CC4(CCC4N)C3)c12 (centres unmarked) [4.054]			MIC Sa [1, 10]: ≤0.5 mg/L; MIC Ec [3, 11]: ≤0.5 mg/L
CNc1cc(F)cc2c1[nH]c1nc(Oc3cnc4ccoc4c3)nc(N3CC4C(N)C4C3)c12 (centres unmarked) [4.291]	≤ 0.5	≤ 0.5	
CNc1cc(F)cc2c1[nH]c1nc(Oc3cnc(C(C)C)nc3)nc(N3C[C@H](N)C4(CC4)C3)c12 [4.233]	≤ 0.5	1 (≈ 2.16 µM)	
CNc1cc(F)cc2c1[nH]c1nc(Oc3cnc(C4CC4)nc3)nc(N3CC(N)C4(CC4)C3)c12 (centres unmarked) [4.242]			MIC Sa [1, 10]: ≤0.5 mg/L; MIC Ec [3, 11]: ≤0.5 mg/L
CNc1cc(F)cc2c1[nH]c1nc(Oc3cncnc3)nc(N3CC(N)C4(CC4)C3)c12 (centres unmarked) [4.002]	≤ 0.5	≤ 0.5	
